Measurements published in patent US20230011052A1, “METHOD AND COMPOSITIONS FOR REGULATED ARMORING OF CELLS” (Senti Biosciences, Inc., priority 2019, published 2023).
“And” between values parts separate entries of the source, which are not always exact repeats. Equal values may be shown once. Read-outs that look alike come from different tables or passages of the source.

Legend:
ERT2 domain = target: T1, ERT2 domain (Homo sapiens, UniProt P03372, G400V/L544A/M543A); experiment: Tamoxifen (ERT2) regulatable TF reporter and CAR expression in T cells (MFI); type: cell-based; details: T cells with ERT2 regulatable TF 565 and reporter alone (1066) or on construct also encoding a CAR (2235); 1, 0.25, 0.1 uM or no drug; Day 9 MFI
T1 construct: expressed in transfected cells; host or cells: CD4/CD8 T cells, virally transduced
T1 sequence (P03372 311-547 G400V/M543A/L544A limits assumed): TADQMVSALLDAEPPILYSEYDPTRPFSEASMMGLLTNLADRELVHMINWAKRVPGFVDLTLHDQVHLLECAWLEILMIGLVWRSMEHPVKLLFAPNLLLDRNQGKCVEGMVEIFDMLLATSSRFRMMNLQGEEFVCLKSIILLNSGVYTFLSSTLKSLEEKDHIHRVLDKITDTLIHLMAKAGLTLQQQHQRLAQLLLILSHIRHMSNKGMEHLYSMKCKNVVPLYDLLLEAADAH
Excerpt: Various regulatable TF (also referred to as an activation-conditional control polypeptide (ACP) for drug-inducible formats or “synTF”) and expression cassettes were constructed as shown in FIG. 17A. […] The cassettes were cloned into a viral vector and used to produce virus.
On Day 0, CD4/CD8 T cells (FL00711) were thawed and activated with Dynabeads (3:1) in complete T cell media (Optimizer+Supplements—Gibco+5% human serum)+IL-2 (100 Units/ml). On Day 2, cells were transduced with 1×10^5 GV of virus. […] Florescent median intensity (MFI) was assessed of Day 9.

[1] = tested on: T cells engineered with drug-inducible ACP (inducible IL-12)
Procedure: Grazoprevir potassium salt was dissolved sequentially in DMSO, PEG400, and PBS to reach 10 mg/mL. All Grz dosing was administered IP. 20e6 T cells per mouse were injected by tail vein injection, as indicated. Luminex assay was run to assess levels of hIL-12 in mouse plasma. Presence of human T cells in mouse blood was analyzed by flow cytometry.
Following the results of the experiments above, animals were dosed (IP) 60 mg/kg for 3 days once a day. Recombinant (hIL-2 1×10^4 IU) was also administered as indicated.

[2] = tested on: T cells engineered with drug-inducible ACP (inducible IL-12); type: in vivo; details: for Human T cells in the blood (hCD3+: hCD45+): inducible IL-12 T cells, individual mice
Procedure: Negative controls were untransduced T cells. […] All Grz dosing was administered IP.
A first series of Grazoprevir (Grz) dosing regimens were assessed, as described in Table 25.

[3] = tested on: T cells engineered with drug-inducible ACP (NS3/NS4 protease cleavage site); experiment: In vivo regulated armoring: plasma hIL-12 (Luminex) and circulating human T cells (flow cytometry); parameters: species or system NSG mice; details: 25 mg/kg Grz IP, BID; T cells with SB01845 & SB02357
Procedure: Negative controls were untransduced T cells. […] Dosing: Drug treated mice received 25 mg/kg Grz at each dosing time point; vehicle treated mice received equivalent volume of vehicle; all Grz dosing administered IP. Dosing continued BID on days 2-4. […] Mice were bled on day 4 and sacrificed/bled on day 5.

target cells = experiment: T cell killing assay (LDH release); type: cell-based; details: +/- 2 μM GRZ for 48 hours
Procedure: For T cell killing assays, on Day 0 T cells were seeded at 1e6/mL+/−2 μM of GRZ for 48 hours to induce payload. On Day 2, target cells were counted and 35K were seeded per well in a 96 well plate for 4-6 hrs in target cell media. Then target cell media was removed and T cells were counted and 35K CAR normalized T cells were seeded [E:T— 1:1] in 200 µl of Optimizer media overnight. On Day 3, cells were transferred to a V-bottom plate, spun down, and supernatant harvested to determine killing activity using an LDH assay (CyQUANT LDH Cytotoxicity Assay; Life Technologies).

CC/C(=C(\c1ccccc1)c1ccc(OCCNC)cc1)c1ccccc1 [N-desmethyltamoxifen]
reporter (mCherry) expression (ERT2 domain): did not result expression of the reporter

C=C[C@@H]1C[C@]1(NC(=O)[C@@H]1C[C@@H]2CN1C(=O)[C@H](C(C)(C)C)NC(=O)O[C@@H]1C[C@H]1CCCCCc1nc3ccc(OC)cc3nc1O2)C(=O)NS(=O)(=O)C1CC1.O [grazoprevir]
mice that lost ~15% weight during the first week of dosing ([1]; 60 mg/kg IP, these mice received only 30 mg/kg on day 3): 3 of 10
plasma IL-12 ([1]; Day 4, first on week): significant Grazoprevir dose dependent induction of IL-12
injected human T cells in blood when Grz was administered ([1]; Day 4, 60 mg/kg IP once a day for 3 days): significantly less
plasma IL-12 levels between drug and no-drug groups ([1]; Day 11, off week): equivalent
plasma IL-12 ([1]; Day 18, second on week): further significant Grazoprevir dose dependent induction of IL-12
injected human T cells in blood, inducible system groups with vs without Grz ([1]; Days 11, 18, and 25): no difference
organ findings at end time point ([1]; necropsy): pale kidneys, thick diaphragm, enlarged spleen, thick liver lobe, white/yellow lump growing inside the liver, and organs (liver, stomach, spleen) sticking with peritoneal wall and each other
body weight ([1]; time course): transient weight loss
Human T cells in the blood (hCD3+: hCD45+) ([2]; Day 4, 25 mg/kg BID Grz IP, 25 mg/kg): 5.42 % of live cells and 0.08 % of live cells and 4.07 % of live cells and 3.61 % of live cells and 3.88 % of live cells and 5.91 % of live cells and 4.2 % of live cells and 3.14 % of live cells
Human T cells in the blood (hCD3+: hCD45+) ([2]; Day 4, 50 mg/kg Grz IP, 50 mg/kg): 4.09 % of live cells and 2.96 % of live cells and 3.7 % of live cells and 1.62 % of live cells and 4.16 % of live cells and 2.57 % of live cells and 4.55 % of live cells and 2.58 % of live cells
Human T cells in the blood (hCD3+: hCD45+) ([2]; Day 4, 75 mg/kg Grz IP, 75 mg/kg): 2.95 % of live cells and 3.14 % of live cells and 2.6 % of live cells and 0* % of live cells (2×) and 2.41 % of live cells and 1.43 % of live cells and 2.87 % of live cells
Human T cells in the blood (hCD3+: hCD45+) ([2]; Day 4, 25 + 50 mg/kg Grz IP, 50 mg/kg): 2.18 % of live cells and 6.98 % of live cells and 6.53 % of live cells and 13 % of live cells and 2.24 % of live cells and 4.72 % of live cells and 5.64 % of live cells and 7.89 % of live cells
serum IL-12 levels ([2]; Day 8): returned to baseline
Human T cells in the blood (hCD3+: hCD45+) ([2]; Day 8, 25 mg/kg BID Grz IP, 25 mg/kg): 6.78 % of live cells and 0.077 % of live cells and 3.63 % of live cells and 2.46 % of live cells and 2.07 % of live cells and 3.45 % of live cells and 2.27 % of live cells and 4.09 % of live cells
Human T cells in the blood (hCD3+: hCD45+) ([2]; Day 8, 50 mg/kg Grz IP, 50 mg/kg): 7.36 % of live cells and 10.9 % of live cells and 7.31 % of live cells and 8.1 % of live cells and 9.23 % of live cells and 5.88 % of live cells and 6.63 % of live cells and 7.34 % of live cells
Human T cells in the blood (hCD3+: hCD45+) ([2]; Day 8, 75 mg/kg Grz IP, 75 mg/kg): 8.19 % of live cells and 9.67 % of live cells and 6.55 % of live cells and 0.028 % of live cells and 11.6 % of live cells and 4.7e−003 % of live cells and 11 % of live cells and 3.79 % of live cells
Human T cells in the blood (hCD3+: hCD45+) ([2]; Day 8, 25 + 50 mg/kg Grz IP, 50 mg/kg): 7.09 % of live cells and 7.85 % of live cells and 9 % of live cells and 12 % of live cells and 6.34 % of live cells and 7.02 % of live cells and 8.65 % of live cells and 5.04 % of live cells
mice found dead ([2]; Day 12): 2 of 8
serum IL-12 levels ([2]; Day 12): remained stable
Human T cells in the blood (hCD3+: hCD45+) ([2]; Day 12, 25 mg/kg BID Grz IP, 25 mg/kg): 13.5 % of live cells and 0.21 % of live cells and 13.3 % of live cells and 9.36 % of live cells and 9.33 % of live cells and 14 % of live cells and 16.1 % of live cells and 13.8 % of live cells
Human T cells in the blood (hCD3+: hCD45+) ([2]; Day 12, 25 + 50 mg/kg Grz IP, 50 mg/kg): 10.9 % of live cells and 12.2 % of live cells and 11.1 % of live cells and 16.3 % of live cells and 2.61 % of live cells and 9.13 % of live cells
hIL-12 in the plasma of mice above vehicle [3]: ~100 fold
difference in killing in the presence or absence of grazoprevir (target cells): No noticeable differences in killing
